{"source": "paper PMC3539767", "about": "(Bioorganic & medicinal chemistry letters, 2012)", "key": {"[1]": {"target": "rat mGlu5 (Rattus norvegicus, UniProt P31424)", "sequence (P31424 21-1203)": "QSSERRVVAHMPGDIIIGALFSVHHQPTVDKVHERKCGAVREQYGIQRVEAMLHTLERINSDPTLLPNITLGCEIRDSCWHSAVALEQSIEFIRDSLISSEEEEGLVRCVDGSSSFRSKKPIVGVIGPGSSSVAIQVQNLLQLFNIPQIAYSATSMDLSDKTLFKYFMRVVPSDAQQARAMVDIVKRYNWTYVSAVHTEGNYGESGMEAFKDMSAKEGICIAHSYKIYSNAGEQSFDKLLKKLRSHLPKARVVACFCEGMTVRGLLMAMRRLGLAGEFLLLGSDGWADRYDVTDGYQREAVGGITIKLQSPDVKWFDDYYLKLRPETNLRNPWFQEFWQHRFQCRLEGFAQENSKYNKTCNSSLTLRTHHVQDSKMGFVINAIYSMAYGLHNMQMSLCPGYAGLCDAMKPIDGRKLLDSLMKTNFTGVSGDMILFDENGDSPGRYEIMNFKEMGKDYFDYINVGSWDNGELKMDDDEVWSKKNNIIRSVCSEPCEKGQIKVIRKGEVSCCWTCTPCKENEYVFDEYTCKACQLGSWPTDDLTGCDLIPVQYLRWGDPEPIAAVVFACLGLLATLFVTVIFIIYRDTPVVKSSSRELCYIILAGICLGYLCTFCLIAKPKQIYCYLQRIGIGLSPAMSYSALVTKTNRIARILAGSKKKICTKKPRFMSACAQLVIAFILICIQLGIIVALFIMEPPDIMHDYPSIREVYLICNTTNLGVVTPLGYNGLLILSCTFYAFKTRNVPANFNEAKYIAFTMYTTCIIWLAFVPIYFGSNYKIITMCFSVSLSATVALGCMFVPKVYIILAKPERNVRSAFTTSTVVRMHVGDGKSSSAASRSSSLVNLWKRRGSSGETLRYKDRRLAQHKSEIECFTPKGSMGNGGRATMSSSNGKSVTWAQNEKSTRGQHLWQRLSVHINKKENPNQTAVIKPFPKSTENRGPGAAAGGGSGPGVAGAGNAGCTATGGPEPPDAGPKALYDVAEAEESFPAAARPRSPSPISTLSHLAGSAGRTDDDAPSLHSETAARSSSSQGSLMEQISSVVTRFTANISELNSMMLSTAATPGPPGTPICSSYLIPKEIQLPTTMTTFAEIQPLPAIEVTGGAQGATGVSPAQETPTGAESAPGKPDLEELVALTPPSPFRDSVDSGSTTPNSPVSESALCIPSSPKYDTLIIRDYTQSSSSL", "assay": "calcium mobilization PAM assay, high-expressing rat mGlu5 HTS cell line", "format": "cell-based", "settings": "for allosteric agonist activity: rat mGlu5 (ago-PAM); for % Glu Max (rmGlu5): rat mGlu5 cell line; for mGlu5 PAM activity: rat mGlu5, high expressing rat cell line"}, "[2]": {"target": "human mGlu5 (Homo sapiens, UniProt P41594)", "sequence (P41594 21-1212)": "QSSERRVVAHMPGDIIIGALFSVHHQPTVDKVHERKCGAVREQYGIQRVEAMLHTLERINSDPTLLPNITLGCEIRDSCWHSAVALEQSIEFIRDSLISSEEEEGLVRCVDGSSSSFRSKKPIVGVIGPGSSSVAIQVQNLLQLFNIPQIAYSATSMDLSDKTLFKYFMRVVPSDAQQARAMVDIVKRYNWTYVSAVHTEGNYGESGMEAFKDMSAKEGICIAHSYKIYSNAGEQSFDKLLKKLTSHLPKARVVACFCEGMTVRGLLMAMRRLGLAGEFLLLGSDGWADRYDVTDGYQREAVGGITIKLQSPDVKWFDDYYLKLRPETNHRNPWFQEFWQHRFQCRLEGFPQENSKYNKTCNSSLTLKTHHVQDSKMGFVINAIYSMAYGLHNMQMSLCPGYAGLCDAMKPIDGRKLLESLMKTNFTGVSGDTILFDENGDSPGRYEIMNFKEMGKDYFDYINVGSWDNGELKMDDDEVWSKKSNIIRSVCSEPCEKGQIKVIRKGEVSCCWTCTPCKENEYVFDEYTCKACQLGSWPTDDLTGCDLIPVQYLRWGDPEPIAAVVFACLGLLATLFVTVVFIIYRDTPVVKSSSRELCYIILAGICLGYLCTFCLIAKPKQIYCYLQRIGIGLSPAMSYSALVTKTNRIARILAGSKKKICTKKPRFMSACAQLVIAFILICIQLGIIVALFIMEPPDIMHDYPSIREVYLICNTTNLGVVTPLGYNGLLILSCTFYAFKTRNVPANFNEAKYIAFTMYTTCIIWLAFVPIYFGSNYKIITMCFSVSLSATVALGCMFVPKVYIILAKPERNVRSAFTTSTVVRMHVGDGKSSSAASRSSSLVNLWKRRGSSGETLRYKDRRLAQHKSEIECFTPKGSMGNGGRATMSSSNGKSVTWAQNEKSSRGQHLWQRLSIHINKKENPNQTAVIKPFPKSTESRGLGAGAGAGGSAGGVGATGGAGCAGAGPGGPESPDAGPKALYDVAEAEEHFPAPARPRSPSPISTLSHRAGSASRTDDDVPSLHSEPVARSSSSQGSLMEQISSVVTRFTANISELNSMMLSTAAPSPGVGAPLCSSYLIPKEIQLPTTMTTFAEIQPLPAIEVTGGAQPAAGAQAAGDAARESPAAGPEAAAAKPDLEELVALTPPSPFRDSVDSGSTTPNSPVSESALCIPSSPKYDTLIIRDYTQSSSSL", "assay": "PAM assay in lower expressing human mGlu5 cell line", "format": "cell-based"}, "[3]": {"target": "mGlu5 MPEP site (Rattus norvegicus, UniProt P31424)", "sequence (P31424 21-1203)": "as the sequence (P31424 21-1203) above", "assay": "[3H]-methoxyPEPy radioligand displacement", "format": "binding"}, "[4]": {"assay": "rat plasma protein binding", "format": "in vitro ADME"}, "[5]": {"assay": "human plasma protein binding", "format": "in vitro ADME"}, "[6]": {"test_system": "68 GPCRs, ion channels and transporters", "assay": "Ricerca radioligand binding panel", "settings": "at 10 μM; 68 targets"}, "[7]": {"test_system": "Ca", "assay": "cardiovascular safety ion channel panel, Ca", "format": "biochemical", "settings": "read-out: IC50 Ca; functional activity"}, "[8]": {"test_system": "Na", "assay": "cardiovascular safety ion channel panel, Na", "format": "biochemical", "settings": "read-out: IC50 Na; functional activity"}, "[9]": {"settings": "membranes isolated from rmGlu5, up to 30 μM compound"}}}
{"smiles": "CS(=O)(=O)N(CC(=O)Nc1ccccc1)c1ccccc1Cl", "note": "[15a]", "values": [{"measurement": "allosteric agonist activity", "setting": "[1]", "result": "strong allosteric agonist activity"}, {"measurement": "% Glu Max (rmGlu5)", "setting": "[1]", "result": 61, "unit": "% Glu Max"}, {"measurement": "% Glu Max (hmGlU5)", "setting": "[2]", "result": 77, "unit": "% Glu Max"}]}
{"smiles": "CS(=O)(=O)N(CC(=O)Nc1ccc(F)cn1)c1ccccc1Cl", "note": "[15b]", "values": [{"measurement": "% Glu Max (rmGlu5)", "setting": "[1]", "result": 66, "unit": "% Glu Max"}]}
{"smiles": "CS(=O)(=O)N(CC(=O)Nc1cccnc1F)c1ccccc1Cl", "note": "[15c]", "values": [{"measurement": "% Glu Max (rmGlu5)", "setting": "[1]", "result": 64, "unit": "% Glu Max"}, {"measurement": "% Glu Max (hmGlU5)", "setting": "[2]", "result": 42, "unit": "% Glu Max"}]}
{"smiles": "CS(=O)(=O)N(CC(=O)Nc1cccc(Cl)c1)c1ccccc1Cl", "note": "[compound 9]", "values": [{"measurement": "EC50", "setting": "[1]", "result": 0.098, "unit": "µM"}, {"measurement": "allosteric agonist activity", "setting": "[1]", "result": "strong allosteric agonist activity"}, {"measurement": "fold shift", "setting": "[1]; rat mGlu5, value for 15a estimated because of agonist activity", "result": 7.9, "unit": "fold"}, {"measurement": "% Glu Max (rmGlu5)", "setting": "[1]", "result": 74, "unit": "% Glu Max"}, {"measurement": "% Glu Max (hmGlU5)", "setting": "[2]", "result": 63, "unit": "% Glu Max"}]}
{"smiles": "CS(=O)(=O)N(CC(=O)NCC1CC1)c1cc(C(F)(F)F)ccc1Cl", "note": "[compound 24]", "values": [{"measurement": "mGlu5 PAM activity", "setting": "[1]", "result": "moderately potent"}, {"measurement": "mGlu5 PAM activity", "setting": "[2]", "result": "moderately potent"}, {"measurement": "displacement of [3H]-methoxyPEPy", "setting": "[3]; in words", "result": "did not displace"}, {"measurement": "plasma protein binding", "setting": "[4]", "result": "significantly reduced"}, {"measurement": "plasma protein binding", "setting": "[5]", "result": "significantly reduced"}, {"measurement": "inhibition in Ricerca radioligand binding panel", "setting": "[6]", "result": "< 50", "unit": "% inhibition"}, {"measurement": "IC50", "setting": "[7]", "result": "> 10", "unit": "µM"}, {"measurement": "IC50", "setting": "[8]", "result": "> 10", "unit": "µM"}]}
{"smiles": "O=S(=O)(c1ccc(C#Cc2cccc(F)c2)cc1)N1CCOCC1", "note": "[compound 25]", "values": [{"measurement": "mGlu5 PAM activity", "setting": "[1]", "result": "weak to moderately active PAMs"}, {"measurement": "displacement of [3H]-methoxyPEPy", "setting": "[3]; [9]", "result": "no displacement"}]}
{"smiles": "O=S(=O)(c1ccc(F)cc1)N1CCC[C@H](c2nc(-c3ccc(F)cc3)no2)C1", "note": "[compound 26]", "values": [{"measurement": "mGlu5 PAM activity", "setting": "[1]", "result": "weak to moderately active PAMs"}, {"measurement": "mGlu5 PAM activity", "setting": "[2]", "result": "weak PAM"}, {"measurement": "displacement of [3H]-methoxyPEPy", "setting": "[3]; [9]", "result": "no displacement"}]}
